Measured values: patent publication US20140193827A1 (TEVA PHARMACEUTICAL INDUSTRIES, LTD., priority 2013, published 2014)

System: GA-primed murine splenocytes
Experiment: Tolerance method for assessing process variability
[1] = microarray, splenocytes activated 24 hours

glatiramer acetate [GA] was tested, and the “AVG expression of SH3RF1, probe ILMN_2602597” value [1] was 7.302, the “AVG expression of SLC25A1, probe ILMN_2619846” value [1] was 8.032 and the “AVG expression of SLCO3A1, probe ILMN_2663230” value [1] was 8.007. The “AVG expression of SMOX, probe ILMN_2597030” value [1] was 8.19, the “AVG expression of SPN, probe ILMN_2574982” value [1] was 6.823 and the “AVG expression of STK4, probe ILMN_3004142” value [1] was 11.07. For the same substance, the “AVG expression of TARDBP, probe ILMN_3093089” value [1] was 8.366, the “AVG expression of TBCD, probe ILMN_2891506” value [1] was 9.516 and the “AVG expression of TNF, probe ILMN_2899863” value [1] was 8.846. The “AVG expression of TNFAIP3, probe ILMN_1252202” value [1] was 9.205, the “AVG expression of TNIP1, probe ILMN_2417863” value [1] was 10.34 and the “AVG expression of UBAC2, probe ILMN_2484838” value [1] was 8.614. For the same substance, the “AVG expression of UBAC2, probe ILMN_2949605” value [1] was 10.08, the “AVG expression of UBE2L6, probe ILMN_2431619” value [1] was 8.561 and the “AVG expression of UCHL5, probe ILMN_1240153” value [1] was 8.74. For the same substance, the “AVG expression of VAMP4, probe ILMN_2516348” value [1] was 8.312, the “AVG expression of WDR68, probe ILMN_2546073” value [1] was 7.546 and the “AVG expression of ZBP1, probe ILMN_1228653” value [1] was 7.444. The “AVG expression CCND2” value (probe IIMN_2700166) was 11.38, the “AVG expression RFTN2” value (probe ILMN_1212653) was 7.109 and the “AVG expression ZFP318” value (probe ILMN_1212982) was 9.704. The “AVG expression TXNIP” value (probe ILMN_1213609) was 11.89, the “AVG expression SGK1” value (probe ILMN_1213954) was 9.667 and the “AVG expression IFITM1” value (probe ILMN_1214071) was 11.55. For the same substance, the “AVG expression SNX29” value (probe ILMN_1214294) was 7.713, the “AVG expression A530050E01RIK” value (probe ILMN_1214783) was 7.616 and the “AVG expression IL24” value (probe ILMN_1214841) was 7.762. For the same substance, the “AVG expression HSD11B1” value (probe ILMN_1214998) was 8.421, the “AVG expression LOC100046608” value (probe ILMN_1215796) was 7.035 and the “AVG expression CXCL9” value (probe ILMN_1215862) was 9.757. For the same substance, the “AVG expression APOE” value (probe ILMN_1216042) was 7.5268, the “AVG expression STIM1” value (probe ILMN_1216313) was 8.348 and the “AVG expression TPCN1” value (probe ILMN_1217102) was 8.543. For the same substance, the “AVG expression IFITM1” value (probe ILMN_1217180) was 11.85, the “AVG expression PKIB” value (probe ILMN_1217389) was 11.19 and the “AVG expression PRKACB” value (probe ILMN_1217408) was 11.88. For the same substance, the “AVG expression ITGAE” value (probe ILMN_1217629) was 7.553, the “AVG expression STAU2” value (probe ILMN_1217723) was 8.737 and the “AVG expression ITK” value (probe ILMN_1217899) was 7.055. For the same substance, the “AVG expression D230007K08RIK” value (probe ILMN_1217913) was 9.225, the “AVG expression SCO1” value (probe ILMN_1218036) was 9.072 and the “AVG expression TMIE” value (probe ILMN_1218037) was 8.752. For the same substance, the “AVG expression IFITM6” value (probe ILMN_1218181) was 6.28, the “AVG expression CD69” value (probe ILMN_1218240) was 11.83 and the “AVG expression IL18R1” value (probe ILMN_1218525) was 7.946. For the same substance, the “AVG expression A630054M16RIK” value (probe ILMN_1218533) was 8.828, the “AVG expression LOC385615” value (probe ILMN_1218717) was 8.213 and the “AVG expression EMB” value (probe ILMN_1218799) was 9.501. The “AVG expression 5031436O03RIK” value (probe ILMN_1219017) was 7.811, the “AVG expression LTK” value (probe ILMN_1219860) was 7.398 and the “AVG expression LOC623121” value (probe ILMN_1219896) was 9.039. The “AVG expression EBI2” value (probe ILMN_1220101) was 11.29, the “AVG expression CTSG” value (probe ILMN_1220236) was 7.594 and the “AVG expression TTC28” value (probe ILMN_1220397) was 7.127. The “AVG expression GM590” value (probe ILMN_1220788) was 8.022, the “AVG expression PSAT1” value (probe ILMN_1221048) was 10.49 and the “AVG expression TTYH3” value (probe ILMN_1221311) was 7.858. The “AVG expression LOC100048841” value (probe ILMN_1221516) was 7.303, the “AVG expression ADCY7” value (probe ILMN_1221530) was 8.272 and the “AVG expression ELA2” value (probe ILMN_1221700) was 6.367. The “AVG expression FCGRT” value (probe ILMN_1221819) was 8.525, the “AVG expression FAIM3” value (probe ILMN_1221820) was 13.69 and the “AVG expression PAQR7” value (probe ILMN_1222036) was 6.448. For the same substance, the “AVG expression UGT1A10” value (probe ILMN_1222543) was 6.383, the “AVG expression ROGDI” value (probe ILMN_1222821) was 8.291 and the “AVG expression INDO” value (probe ILMN_1223600) was 7.297. For the same substance, the “AVG expression SMPDL3A” value (probe ILMN_1224116) was 7.588, the “AVG expression SPSB1” value (probe ILMN_1224336) was 8.95 and the “AVG expression LOC380797” value (probe ILMN_1224473) was 8.096. The “AVG expression E130113K22RIK” value (probe ILMN_1224945) was 7.685, the “AVG expression PRKCB” value (probe ILMN_1225085) was 11.14 and the “AVG expression 4930519L02RIK” value (probe ILMN_1225132) was 7.525. For the same substance, the “AVG expression CDKN2D” value (probe ILMN_1225214) was 8.24, the “AVG expression FDPS” value (probe ILMN_1225730) was 12.65 and the “AVG expression MFSD2” value (probe ILMN_1225764) was 8.49. For the same substance, the “AVG expression GAB3” value (probe ILMN_1226514) was 7.563, the “AVG expression E030007N04RIK” value (probe ILMN_1226755) was 8.626 and the “AVG expression MAN2A2” value (probe ILMN_1226901) was 6.871. The “AVG expression D9ERTD392E” value (probe ILMN_1227277) was 9.413, the “AVG expression ITGB7” value (probe ILMN_1227434) was 9.885 and the “AVG expression LOC386545” value (probe ILMN_1227570) was 8.23. For the same substance, the “AVG expression IL12RB1” value (probe ILMN_1227900) was 8.071, the “AVG expression GMFG” value (probe ILMN_1227907) was 10.95 and the “AVG expression IFI30” value (probe ILMN_1228213) was 12.19. The “AVG expression A430106G13RIK” value (probe ILMN_1228804) was 6.595, the “AVG expression NGP” value (probe ILMN_1228832) was 8.125 and the “AVG expression C330023M02RIK” value (probe ILMN_1228917) was 9.763.
